How the values were obtained:
[1] = system: patients with symptomatic heart failure; assay: Human clinical trial: hospitalizations and deaths
[2] = system: patients with symptomatic heart failure; assay: Human clinical trial: neurohormones (urinary aldosterone, plasma renin activity, N-terminal ANF); details: 12 week visit, dose response (p = 0.002)
[3] = system: patients with symptomatic heart failure; assay: Human clinical trial: weight and vital signs; assay type: in vivo, humans; details: 75 mg dose group, Day 9 and Week 4 visits
Protocol: (§1) Concurrent medication within the past 30 days. • 2. 12-lead ECG • 3. […] Signs and symptoms within the past 30 days.
Patients were evaluated 9 days after beginning study medication.
(§2) All statistical methods were two-sided.

[4] = system: patients afflicted with congestive heart failure; details: spironolactone 100 mg/day coadministered with an ACE inhibitor; van Vliet et al 1993; cited from earlier work
[5] = system: patients with symptomatic heart failure; assay: Human clinical trial: cardiac assessments (sodium retention score, NYHA class) and changes in patient therapy; assay type: in vivo, humans; details: spironolactone groups vs placebo; difference not statistically significant
Text: as §1, §2

Compound: CC(=O)S[C@@H]1CC2=CC(=O)CC[C@]2(C)[C@H]2CC[C@@]3(C)[C@@H](CC[C@@]34CCC(=O)O4)[C@H]12 [Spironolactone, 17-hydroxy-7α-mercapto-3-oxo-17α-pregn-4-ene-21-carboxylic acid γ-lactone acetate]
- patients died within 30 days after the study was completed ([1]; previously at the 50 mg dose): Three
- Hospitalizations, percent of patients ([1]; spironolactone 12.5 mg): 7.3%
- Hospitalizations, percent of patients ([1]; spironolactone 25 mg): 6.6%
- Hospitalizations, percent of patients ([1]; spironolactone 50 mg): 27.6%
- Hospitalizations, percent of patients ([1]; spironolactone 75 mg): 14.6%
- Urinary aldosterone excretion, change from baseline [2]: Greater increases were seen at higher doses of spironolactone
- changes from baseline in body weight [3]: more weight loss than other patients
- patients in whom the treatment was highly effective [4]: 13 of 16
- NYHA Class [5]: trend toward improvement
